The subject of assay [1] is ICR male mice. Nature of the assay: Anti-chlorpromazine action (locomotor stimulant action). It is filed as in vivo. The following applies: Mus musculus, 2 h; SC; mice given chlorpromazine HCl 5 mg/kg s.c. one hour before; estimated from regression line; read-out: Concentration of test compound necessary for inducing 3000 count of automatism quantity in 2 hours. How it is done:
Anti-chlorpromazine action (Locomotor stimulant action)
ICR male mice weighing 35 - 40 g (four animals per group) were subcutaneously administered with chlorpromazine HCl at the dose of 5 mg/kg and immediately set in the automatic locomotor-measuring apparatus (AUTOMEX). One hour later, the test compound dissolved in saline was subcutaneously administered, and the locomotor activity was measured every 15 minutes for 120 minutes. The total locomotor activity during the period of 120 minutes was calculated and the regression line was estimated based on the method of least squares, from which the amount of the test compound necessary for inducing 3000 locomotor-count was estimated (Table 2).

Assay [2] concerns ICR male mice. Description: Anti-reserpine action (antagonistic action against hypothermia). It is filed as in vivo. The settings on record: Mus musculus, 2 h; SC; mice given reserpine 5 mg/kg s.c. 3 or 3.5 hours before; estimated from regression line; read-out: Concentration of test compound necessary for raising body temperature by 1°C on the average for 120 minutes. How it is done: Anti-reserpine action (Antagonistic action against hypothermia)
ICR male mice weighing 35 - 40 g were subcutaneously administered with reserpine at the dose of 5 mg/kg. About 2 hours later, each of the mice was held by a mouse-holder, and a body temperature sensor was intrarectally inserted. Thereafter, the body temperature was automatically measured every 10 minutes. The test compound dissolved in saline was subcutaneously administered 3 or 3.5 hours after administration of reserpine. After the administration of the test compound, the body temperature was measured every 10 minutes over the period of 120 minutes. The area below the body temperature line during the period was calculated, from which the regression line was estimated based upon least square method, and estimated was the amount of the test compound necessary for raising the body temperature by 1°C on the average for 120 minutes from that just before the administration of the test compound (Table 1).

As for `CC(C)C[C@H](NC(=O)[C@H]1NC(=O)C[C@H]1C)C(=O)N1CCC[C@H]1C(N)=O` [Compound 1A, N-(cis-3-Methylpyroglutamyl)-L-leucyl-L-prolinamide], in the assay on ICR male mice [1], the ED (3000 locomotor counts) was 2.63 mg/kg. Also, the ED (1 C rise of body temperature) with ICR male mice [2] was 0.18 mg/kg. In the case of `CSCC[C@H](NC(=O)[C@H]1NC(=O)C[C@H]1C)C(=O)N1CCC[C@H]1C(N)=O` [Compound 2A, N-(cis-3-Methylpyroglutamyl)-L-methionyl-L-prolinamide], the ED (3000 locomotor counts) in the assay on ICR male mice [1] was 1.64 mg/kg. Besides, in the assay with ICR male mice [2], the ED (1 C rise of body temperature) was 0.48 mg/kg.

As for `CCCC[C@H](NC(=O)[C@H]1NC(=O)C[C@H]1C)C(=O)N1CCC[C@H]1C(N)=O` [Compound 5A, N-(cis-3-Methylpyroglutamyl)-L-norleucyl-L-prolinamide], the ED (3000 locomotor counts) with ICR male mice [1] is 16.3 mg/kg. Moreover, the ED (1 C rise of body temperature) in the assay with ICR male mice [2] is 0.33 mg/kg.

Take `CCC[C@H](NC(=O)[C@H]1NC(=O)C[C@H]1C)C(=O)N1CCC[C@H]1C(N)=O` [Compound 3A, N-(cis-3-Methylpyroglutamyl)-L-norvalyl-L-prolinamide]: the ED (1 C rise of body temperature) with ICR male mice [2] is 0.91 mg/kg. Take `NC(=O)[C@@H]1CCCN1C(=O)[C@H](Cc1c[nH]cn1)NC(=O)[C@@H]1CCC(=O)N1` [TRH, L-pyroglutamyl-L-histidyl-L-prolinamide, reference compound]: the ED (3000 locomotor counts) with ICR male mice [1] was 6.82 mg/kg.

The values are drawn from patent EP0473993B1, “Novel peptide derivatives and their pharmaceutical use” (Japan Tobacco Inc., priority 1990, dated 1992).
